Six molecules from patent publication US8012942B2, “Carba-nucleoside analogs for antiviral treatment” (Gilead Sciences, Inc., priority 2009, dated 2011) can be followed below.

The subject of one assay is Replicon cells. The experiment in a line: HCV EC50 determination, replicon luciferase assay. Particulars: Hepatitis C virus, 72 h. The class given is cell-based. Here is the method:
Replicon cells were seeded in 96-well plates at a density of 8×10^3 cells per well in 100 μL of culture medium, excluding Geneticin. Compound was serially diluted in 100% DMSO and then added to the cells at a 1:200 dilution, achieving a final concentration of 0.5% DMSO and a total volume of 200 μL. Plates were incubated at 37° C. for 3 days, after which culture medium was removed and cells were lysed in lysis buffer provided by Promega's luciferase assay system. Following the manufacturer's instruction, 100 μL of luciferase substrate was added to the lysed cells and luciferase activity was measured in a TopCount luminometer.
For orientation: In antiviral work, replicon cells carry a viral genome segment that copies itself.

The target in another assay is T1, HCV Δ21 NS5b polymerase (Hepatitis C virus genotype 1b, UniProt Q9WMX2).
T1 construct: 75 nM HCV Δ21 NS5b polymerase
The experiment in a line: HCV IC50 determination, NS5b polymerase assay. The class given is biochemical. How it is done:
Assay Protocol: Either wild type or S282T (Migliaccio, et al, J. Biol. Chem. 2003, 49164-49170; Klumpp, et al., J. Biol. Chem. 2006, 3793-3799) mutant polymerase enzyme was used in this assay. NS5b polymerase assay (40 μL) was assembled by adding 28 μL polymerase mixture (final concentration: 50 mM Tris-HCl at pH 7.5, 10 mM KCL, 5 mM MgCl2, 1 mM DTT, 10 mM EDTA, 4 ng/μL of RNA template, and 75 nM HCV Δ21 NS5b polymerase) to assay plates followed by 4 μL of compound dilution. The polymerase and compound were pre-incubated at 35° C. for 10 minute before the addition of 8 μL of nucleotide substrate mixture (33P-α-labeled competing nucleotide at KM and 0.5 mM of the remaining three nucleotides). The assay plates were covered and incubated at 35° C. for 90 min. Reactions were then filtered through 96-well DEAE-81 filter plates via vacuum. The filter plates were then washed under vacuum with multiple volumes of 0.125 M NaHPO4, water, and ethanol to remove unincorporated label. Plates were then counted on TopCount to assess the level of product synthesis over background controls. The IC50 value is determined using Prism fitting program.

[1] abbreviates: replicon cells, 3 days at 37° C., luciferase activity, read-out: EC50.

Structures are written as SMILES. Where two headings read alike, the source gives them in different places.

Broadly, the EC50 is the concentration at which the effect is half-maximal. Take `C[C@@]1(O)[C@H](O)[C@@H](CO)O[C@H]1c1scc2c(N)ncnc12` [Compound 1]: the EC50 in the assay with Replicon cells (setting [1]) came out at 90 µM.
Turning to `CC(C)(C)C(=O)SCCOP(=O)(OCCSC(=O)C(C)(C)C)OC[C@H]1O[C@@H](c2scc3c(N)ncnc23)[C@](C)(O)[C@@H]1O` [Compound 2], in the assay with Replicon cells (setting [1]), the EC50 turned out to be 6.1 µM.
As a reminder, the IC50 is the concentration that gives 50% inhibition. Higher therefore signals lower potency. At HCV Δ21 NS5b polymerase, `C[C@@]1(O)[C@H](O)[C@@H](COP(=O)(O)OP(=O)(O)OP(=O)(O)O)O[C@H]1c1scc2c(N)ncnc12` [Compound 4] had a half-maximal inhibitory concentration (IC50) of 0.37 µM.
Regarding `CC(C)(C)C(=O)SCCOP(=O)(OCCSC(=O)C(C)(C)C)OC[C@H]1O[C@@H](c2scc3c(=O)[nH]c(N)nc23)[C@](C)(O)[C@@H]1O` [Compound 62], in the assay on Replicon cells (setting [1]), the EC50 stood at 24 µM.
`C[C@@]1(O)[C@H](O)[C@@H](COP(=O)(O)OP(=O)(O)OP(=O)(O)O)O[C@H]1c1scc2c(=O)[nH]c(N)nc12` [Compound 63] yielded an IC50 on HCV Δ21 NS5b polymerase of 0.27 µM.
In the assay on Replicon cells, `CCOC(=O)[C@H](C)NP(=O)(OC[C@H]1O[C@@H](c2scc3c(N)ncnc23)[C@](C)(O)[C@@H]1O)Oc1ccccc1` (stereo partly drawn) [Compound 64] came in with a half-maximal effective concentration (EC50) of 2.9 µM.
